Laboratory results published in patent publication US7521540B2, “CYR61 compositions and methods” (Munin Corporation, priority 1996, dated 2009).

Tests used:
[1] = test system: Human Microvascular Endothelial Cells; assay: In vitro migration assay for angiogenesis inhibitors; format: cell-based; conditions: bFGF 10 ng/ml; Cyr61; IGF-II
Protocol: As in the preceding Example, human microvascular endothelial cells (Clonetics) were used. In one series of assays, several carbohydrates and carbohydrate derivatives were analyzed. These compounds included 10 mM mannose, 10 mM mannose-6-phosphate, and 10 mM galactose. […] Cyr61 plus galactose induced the migration of approximately 74 cells per set of three high-powered fields. […] The angiogenic activity of basic FGF (10 ng/ml) was also tested, as described above, with and without mannose-6-phosphate. In the presence of 10 mM mannose-6-phosphate, bFGF induced 51 cells per set of three high-powered fields to migrate; in its absence, bFGF induced the migration of approximately 52 cells. […] The effect of mannose-6-phosphate on IGF II activity was anticipated because mannose-6-phosphate is known to compete with IGF II for their common receptor (the IGF II receptor). […] Moreover, because there is an essentially perfect correlation between the in vitro migration assay and the in vivo angiogenesis assay, described below, mannose-6-phosphate has been identified as an inhibitor of angiogenesis based on the results of the assay disclosed herein. Accordingly, the invention contemplates a method of inhibiting angiogenesis comprising the step of administering an inhibitor the angiogenic activity of Cyr61 such as mannose-6-phosphate. Assays such as that described above may also be used to screen for other inhibitors of angiogenesis which may be useful in the treatment of diseases associated with angiogenesis such as cancer, and diseases of the eye which are accompanied by neovascularization.

cornea = assay: Cornea assay for angiogenic factors; format: in vivo, rat; conditions: FGF 0.15 μM (six animals); Cyr61 1 μg/ml (seven animals)
Text: Another assay for modulators of angiogenesis is an in vivo assay for assessing the effect of a suspected modulator in the presence of an ECM signaling molecule-related biomaterial, such as Cyr61, on angiogenesis is the Cornea Assay. The Cornea Assay takes advantage of the absence of blood vessels in the cornea, which in the presence of an angiogenic factor, results in the detectable development of capillaries extending from the sclera into the cornea. Friedlander et al., Science 270:1500-1502 (1995). This ingrowth of new blood vessels from the sclera can be microscopically monitored. Further, the visually determined rate of migration can be used to assess changes in the rate of angiogenesis. […] Subsequently, eyes containing implants are visually observed for growth of the readily visible blood vessels within the eye. […]
Although rats of various sizes can be used in the cornea assay, a preferred size for the rats is 150-200 g/animal. […] Once the cornea pocket is made, the spatula is removed and the distance between the limbus and base of the pocket is measured to make sure the separation is at least about 1 mm. […]
Following surgery, animals are examined daily for seven days with the aid of a stereomicroscope to check for inflammation and responses. […] During this seven day period, animals are monitored for implant position and corneal exudate. […]

## bFGF: Growth factor used as positive control [reference compound]
[1]
  migrating cells, chemoattractant without mannose-6-phosphate: approximately 52 cells
cornea
  eyes showing blood vessel growth after seven days: all six
